What was measured:
[1] = tested on: patients with atrial fibrillation; conditions: oral; two 6 month studies; cited from earlier work
[2] = tested on: patients receiving sotalol or dofetilide; assay: Randomized, double-blind, placebo-controlled study: 12-lead ECG intervals in people taking dofetilide or sotalol; assay type: in vivo, human
Description: (§1) A randomized, double-blind, placebo-controlled study was performed at Hartford Hospital. People taking dofetilide or sotalol therapy for at least 5 half-lives were eligible for inclusion. […] After enrollment, people who discontinued their sotalol or dofetilide or altered their dosage of these drugs were excluded as well. Thirty-four participants were enrolled in the study. Three were subsequently excluded because the antiarrhythmics they were using were discontinued or the dose of the antiarrhythmics changed during the study. Given the known baseline differences in QTc intervals among men and women, each gender was randomized separately using stratified allocation. Patients completing the study (n=30) were well matched for baseline characteristics, which are reflected in Table 1. Intracellular concentrations of essential elements were available for 19 subjects. Overall 63.2% of patients (regardless of experimental group) had baseline intracellular magnesium concentrations below the normal reference range of 33.9-41.9 mEq/IU with an average level of 32.6±2.2 mEq/IU. All of the other baseline intracellular elements evaluated (phosphorus, chloride, calcium, potassium, and sodium) were within the reference range although the phosphorus was at the top of the range (average=16.7±2.8 mEq/IU with reference range of 14.2-17.0 mEq/IU).
(§2) Participants received three tablets of magnesium L-lactate (Mag-Tab SR®; Niche Pharmaceuticals; Roanoke, Tex.) or matching placebo twice daily (504 mg of elemental magnesium daily) for 48 hours (i.e. t=0, 12 h, 24 h, 36 h, and 48 h). A 12-lead electrocardiogram (ECG) was recorded at 25 mm/sec at rest prior to initiation of treatment (i.e. baseline) and at 3 and 51 hours after the first dose of magnesium (i.e. t=3 h and t=51 h) for each participant. A single blinded investigator read all ECGs using a precision ruler of 0.5 mm scale (Schlaedler-Quinzel, Inc. Parsippany, N.J.).
QT intervals were measured from the onset of the Q wave (or R/S wave if there was no Q wave) to the end of the T wave where it merges with the isoelectric baseline. The beginning and end of the QRS complex were determined by visual inspection, whereas the end of the T-wave was obtained by extrapolating the descending slope of the T-wave to the isoelectric baseline. When a U wave interrupts the down-sloping of the T-wave, the visible portion of the T wave was extrapolated to the T-P baseline to define the end of the T-wave. The R-R interval was measured from the peak of one R wave to the peak of an adjacent R wave. The QTc interval was corrected for heart rate using Bazett's formula [QTc=QT/(RR)^1/2].
Continuous data was expressed by a mean±SD. A p value less than 0.05 was considered statistically significant. The primary analysis was the intergroup comparisons of the change in QTc interval from baseline at 3 hours and 51 hours using Bazett's formula. Evaluations of the QRS, QT, and RR intervals were compared between groups at each time period as well. Mann-Whitney tests were used for all statistical analyses of continuous ECG data. Intracellular element intragroup comparisons were performed with a paired t-test. Chi^2 or Fischer's Exact tests were used for categorical comparisons. Statistical analysis was performed using SPSS version 5.

[3] = Intracellular elemental concentrations in sublingual buccal smears (EXAtest, energy-dispersive X-ray analysis); assay type: in vivo, human; conditions: p=0.002; all patients below the normal reference range at baseline reached it
Description: as §1, with “Patients completing the study (n=30) were well matched for baseline characteristics, which are reflected in Table 1. Intracellular concentrations of essential elements were available for 19 subjects. Overall 63.2% of patients (regardless of experimental group) had baseline intracellular magnesium concentrations below the normal reference range of 33.9-41.9 mEq/IU with an average level of 32.6±2.2 mEq/IU.” left out
as §2, with “A single blinded investigator read all ECGs using a precision ruler of 0.5 mm scale (Schlaedler-Quinzel, Inc. Parsippany, N.J.).” left out

Row | Compound | maintaining sinus rhythm [1] | QT interval reduction ([2]; 3 hours) | reduction in the QTc interval from baseline ([2]; 3 hours, group receiving diuretics) | reduction in the QTc interval from baseline ([2]; 3 hours, no diuretic group) | reduction in the QTc interval from baseline ([2]; 51 hours, group receiving diuretics) | reduction in the QTc interval from baseline ([2]; 51 hours, no diuretic group) | change of intracellular magnesium concentrations after magnesium supplementation [3]
1 | [Mg+2].[OH-].[OH-] [magnesium hydroxide] | ineffective | – | – | – | – | – | –
2 | C[C@H](O)C(=O)[O-].C[C@H](O)C(=O)[O-].O.O.[Mg+2] [Magnesium L-lactate, magnesium l-lactate dihydrate] | – | 15 ms | 51.1 ± 42 ms | 25.5 ± 27.9 ms | 24.7 ± 24.3 ms | 26.2 ± 27.4 ms | rose significantly
